Experimental data as given in patent publication US8648080B2, “Acid pump antagonist for the treatment of diseases involved in abnormal gastrointestinal motility” (RaQualia Pharma Inc., priority 2009, dated 2014).

System: gastrointestinal motility in the gastric antrum and duodenum
Experiment: gastrointestinal motility under pentagastrin-stimulated gastric acid secretion in conscious dogs with force transducers
Format: in vivo, Beagle dogs
Description: Beagle dogs surgically wearing a force transducer at gastric antrum and serosal side of duodenum were used, and the motion of the gastric antrum and duodenum under wakefulness were observed. After confirming the phase III in the hungry condition, gastric acid secretion was stimulated by pentagastrin subcutaneous infusion (6 microg/kg/hr). Pentagastrin infusion was continued until the end of the study. After about 2 hours from pentagastrin infusion, an acid pump antagonist (compound A) was orally administered, and then gastrointestinal motility was continuously observed for 2-3 hours. In FIG. 1, the horizontal axis represents the time at measuring, and the vertical axis represents the gastrointestinal contraction towards muscle bridge of gastric antrum or duodenum. The phase III contraction disappeared by pentagastrin stimulation, 6 microg/kg/hr, which is known to promote gastric acid secretion; and uncoordinated contraction, which is different from the contraction of postprandial period with solid food, occurred in the stomach and duodenum.

COCCn1c(C)nc2cc(C(=O)N(C)C)c3c(c21)OC(c1ccccc1)CC3 (single isomer, unassigned; (-)) [compound A, (−)-1-(2-methoxyethyl)-N,N,2-trimethyl-8-phenyl-1,6,7,8-tetrahydrochromeno[7,8-d]imidazole-5-carboxamide]
effect on gastrointestinal motility (phase III contraction / IMC) (0.3 mg/kg orally, about 2 hours after start of pentagastrin s.c. infusion 6 microg/kg/hr, hungry condition, FIG. 1): the phase III contraction occurred in the stomach and duodenum
time after administration at which phase III contraction occurred (0.3 mg/kg orally, pentagastrin infusion 6 microg/kg/hr, stomach and duodenum): one

Cc1cccc(C)c1CNc1cc(C(=O)NCCO)cn2c(C)c(C)nc12 [AZD0865, 8-[{2,6-dimethylbenzyl}amino]-N-[2-hydroxyethyl]-2,3-dimethyl-imidazo[1,2-a]pyridin-6-carboxamide]
time after dosing until irregular contraction tended to subside (1.5 mg/kg orally, pentagastrin infusion, method as Example 1): one
effect on gastrointestinal motility (phase III contraction / IMC) (1.5 mg/kg orally, pentagastrin infusion, method as Example 1, FIG. 4): IMC occurred

Cc1nc2c(O[C@H]3CCOc4cc(F)cc(F)c43)cc(C(=O)N(C)C)cc2[nH]1 [compound B, (S)-(−)-4-[(5,7-difluoro-3,4-dihydro-2H-chromen-4-yl)oxy]-N,N,2-trimethyl-1H-benzimidazole-6-carboxamide]
time after dosing until IMC occurred (1 mg/kg orally, pentagastrin infusion, method as Example 1): one
effect on gastrointestinal motility (phase III contraction / IMC) (1 mg/kg orally, pentagastrin infusion, method as Example 1, FIG. 2): IMC occurred

Cc1nc(Nc2ccc(F)cc2)nc(N2CCc3ccccc3C2C)c1C.Cl (centres unmarked) [revaprazan, 5,6-dimethyl-2-(4-fluoro-phenylamino)-4-(1-methyl-1,2,3,4-tetrahydroisoquinoline-2-yl)pyrimidine hydrochloride]
time after dosing until irregular contraction tended to subside (10 mg/kg orally, pentagastrin infusion, method as Example 1): one
effect on gastrointestinal motility (phase III contraction / IMC) (10 mg/kg orally, pentagastrin infusion, method as Example 1, FIG. 3): IMC occurred
